Results published in patent publication US11225482B2, “Dihydropyrrolopyrimidines for the treatment and prophylaxis of hepatitis B virus infection” (Hoffmann-La Roche Inc., priority 2017, dated 2022).

Columns and labels:
[1] = system: HBsAg; experiment: HBsAg assay (CLIA) in HepG2.2.15 cells; assay type: cell-based, HBV; details: Hepatitis B virus, HepG2.2.15, read-out: IC50 (HBsAg assay)
Description: (§1) HepG2.2.15 cells (Acs et al. Proc Natl Acad Sci USA, 84, (1987), 4641-4), a constitutively HBV-expressing cell line were cultured in DMEM+Glutamax-I medium (Invitrogen, Carlsbad, Calif., USA), supplemented with 10% fetal bovine serum (Invitrogen) and G418 (Invitrogen) at a final concentration of 200 mg/L and maintained in 5% CO2 at 37° C.
HepG2.2.15 cells were seeded in duplicate into white, 96-well plates at 1.5×10^4 cells/well. The cells were treated with a three-fold serial dilution series of the compounds in DMSO. The final DMSO concentration in all wells was 1% and DMSO was used as no drug control.
The HBsAg chemiluminescence immunoassay (CLIA) kit (Autobio Diagnostics Co., Zhengzhou, China, Catalog number: CL0310-2) was used to measure the levels of secreted HBV antigens semi-quantitatively. For the detection 50 μL/well culture supernatant was used and HBsAg was quantified using HBsAg chemiluminescence immunoassay (CLIA) kit (Autobio Diagnostics Co., Zhengzhou, China, Catalog number: CL0310-2), 50 μL of the supernatant was transferred to the CLIA assay plate and 50 μL of enzyme conjugate reagent was added into each well. The plates were sealed and gently agitated for 1 hour at room temperature. The supernatant-enzyme-mixture was discarded and wells were washed 6 times with 300 μL of PBS. The residual liquid was removed by plating the CLIA plate […] on absorbent tissue paper. 25 μL of substrates A and B were added to each well. Luminance was measured using a luminometer (Mithras LB 940 Multimode Microplate Reader) after 10 minutes incubation. Dose-response curves were generated and the IC50 value was extrapolated by using the E-WorkBook Suite (ID Business Solutions Ltd., Guildford, UK). The IC50 was defined as the compound concentration (or conditioned media log dilution) at which HBsAg secretion was reduced by 50% compared to the no drug control.

[2] = system: HBV DNA; experiment: HBV DNA assay (real-time qPCR/TaqMan) in HepG2.2.15 cells; assay type: cell-based; details: Hepatitis B virus, 144 h, extracellular HBV DNA in supernatant, six days after initial administration, qPCR, read-out: IC50 (Anti HBV DNA production activity)
Description: as §1
The assay employs real-time qPCR (TaqMan) to directly measure extracellular HBV DNA copy number in the cell supernatant, HepG2.2.15 cells were plated in 96-well microtiter plates before treatment with complete medium (DMEM, Glutamax, 10% FBS, 1% Penicillin/Streptomycin, 250 μg/mL Genetycin, final DMSO concentration is 1%). Only the interior wells were utilized to reduce “edge effects” observed during cell culture, the exterior wells were filled with complete medium to help minimize sample evaporation. The HepG2.2.15 cells were treated 1 h later with various concentrations of a test compound in duplicate (top concentration used at 5 μM, 2 μM or 0.5 μM according to the HBsAg IC50 observed, with ⅓ successive dilutions (total of 10 dilutions). Six days following the initial administration of the test compound, the cell culture supernatant was collected; DNA extraction was performed by automated system (Magnapure) and then used in a real-time qPCR/TaqMan assay to determine HBV DNA copy numbers. Antiviral activity was calculated from the reduction in HBV DNA levels (IC50).

| Structure (SMILES) | IC50 [1] [nM] | IC50 [2] [nM] |
| --- | --- | --- |
| Cc1nc(C(=O)N2Cc3nc(-c4ncccn4)ncc3C2C)sc1C (centres unmarked) [Example 10, (4,5-Dimethylthiazol-2-yl)-(5-methyl-2-pyrimidin-2-yl-5,7-dihydropyrrolo[3,4-d]pyrimidin-6-yl)methanone] | 282 | 67.6 |
| CC1c2cnc(-c3ncccn3)nc2CN1C(=O)c1nn(C)c2ccccc12 (centres unmarked) [Example 12, (1-Methylindazol-3-yl)-(5-methyl-2-pyrimidin-2-yl-5,7-dihydropyrrolo[3,4-d]pyrimidin-6-yl)methanone] | 158 | 5.6 |
| Cc1c(C(=O)N2Cc3nc(-c4ncccn4)ncc3C2C)oc2ccccc12 (centres unmarked) [Example 21, (3-Methylbenzofuran-2-yl)-(5-methyl-2-pyrimidin-2-yl-5,7-dihydropyrrolo[3,4-d]pyrimidin-6-yl)methanone] | 219 | 26.2 |
| COc1cc(F)nc(N2Cc3nc(-c4ncccn4)ncc3C2C)c1 (centres unmarked) [Example 30, 6-(6-Fluoro-4-methoxy-2-pyridyl)-5-methyl-2-pyrimidin-2-yl-5,7-dihydropyrrolo[3,4-d]pyrimidine] | 50 | 6.5 |
